Measurements published in publication PMC10850954, “HDAC6/aggresome processing pathway importance for inflammasome formation is context-dependent” (The Journal of Biological Chemistry, 2024).

Target: T1, HDAC6 (Homo sapiens, UniProt Q9UBN7)
T1 sequence (Q9UBN7 1-1215): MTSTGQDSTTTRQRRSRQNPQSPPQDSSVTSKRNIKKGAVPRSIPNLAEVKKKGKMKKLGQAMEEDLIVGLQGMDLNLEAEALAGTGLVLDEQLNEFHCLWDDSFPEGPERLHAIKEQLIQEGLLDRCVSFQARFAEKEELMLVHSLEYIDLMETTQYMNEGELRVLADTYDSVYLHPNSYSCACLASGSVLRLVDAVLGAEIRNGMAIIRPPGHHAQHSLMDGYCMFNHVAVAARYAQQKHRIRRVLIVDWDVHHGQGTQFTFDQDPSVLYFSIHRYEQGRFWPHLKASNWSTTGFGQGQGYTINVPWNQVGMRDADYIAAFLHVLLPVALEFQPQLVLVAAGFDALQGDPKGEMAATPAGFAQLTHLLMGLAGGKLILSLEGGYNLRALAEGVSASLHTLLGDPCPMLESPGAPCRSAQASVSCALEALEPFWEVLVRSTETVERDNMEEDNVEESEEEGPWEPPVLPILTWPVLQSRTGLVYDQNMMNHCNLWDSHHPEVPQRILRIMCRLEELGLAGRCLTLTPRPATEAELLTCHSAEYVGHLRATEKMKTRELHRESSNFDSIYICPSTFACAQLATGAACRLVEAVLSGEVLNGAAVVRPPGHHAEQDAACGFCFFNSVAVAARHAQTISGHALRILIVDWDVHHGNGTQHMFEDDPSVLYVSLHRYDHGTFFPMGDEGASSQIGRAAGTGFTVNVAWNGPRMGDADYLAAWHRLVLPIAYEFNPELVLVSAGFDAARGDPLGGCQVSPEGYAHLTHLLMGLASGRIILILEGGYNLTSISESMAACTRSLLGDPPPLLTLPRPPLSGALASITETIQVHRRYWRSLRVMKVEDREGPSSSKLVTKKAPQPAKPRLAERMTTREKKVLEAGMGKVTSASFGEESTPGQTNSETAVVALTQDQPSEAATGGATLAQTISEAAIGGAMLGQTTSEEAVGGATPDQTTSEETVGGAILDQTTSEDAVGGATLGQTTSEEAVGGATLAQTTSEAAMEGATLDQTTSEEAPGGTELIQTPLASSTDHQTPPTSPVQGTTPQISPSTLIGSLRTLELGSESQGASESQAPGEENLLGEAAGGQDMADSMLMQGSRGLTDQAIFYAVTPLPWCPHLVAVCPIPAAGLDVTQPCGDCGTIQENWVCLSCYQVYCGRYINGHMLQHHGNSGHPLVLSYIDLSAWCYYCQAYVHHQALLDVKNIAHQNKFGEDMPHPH
Test: HDAC6 degradation in PBMCs (immunoblot)
Format: cell-based
Set-up: endogenous in cells; host or cells: PBMCs (with or without LPS priming)
Conditions: XY-07-35 at 1 μM
Description: Figure 3 Effect of […] mediated HDAC6 degradation on NLRP3 inflammasome activation in PBMCs.A, schematic of the mode of action of an HDAC6 degrader. The PROTAC engages both HDAC6 and the E3 ligase cereblon (CRBN), which then leads to ubiquitination and degradation of HDAC6. B, chemical structure of the HDAC6 degrader XY-07-35 and of the negative control XY-07-191 which no longer recruits CRBN. C, in vitro enzymatic assay of compound XY-07-35 on the activity of different HDACs. IC50 for each enzyme is shown. D, XY-07-35 mediated HDAC6 degradation in PBMCs. PBMCs (without or with LPS priming for 4 h) were treated with the indicated compounds and HDAC6 levels were detected by immunoblotting with an anti-HDAC6 antibody. Detection of actin was used as a control for loading. CGP, CGP084892 (Caspase-1 inhibitor); AFN700 is an inhibitor of the NF-kB pathway (IKK inhibitor). E, HDAC6 degradation impact on IL-1β release in PBMCs following MSU 200 μg/ml (5 h), nigericin 2 μM (2 h) or ATP 3 mM (0.5 h) treatment. Cells were first primed with 0.2 ng/ml LPS for 4 h at 37 °C, then treated with MSU, nigericin, and ATP as indicated. […]
Treated BMDM cells were lysed with RIPA buffer (supplied with cOmplete Protease Inhibitor Cocktail, Merck#11697498001), and protein concentration was determined by Bradford assay. […]

SMILES	HDAC6 degradation / effect on HDAC6 levels
CN(C(=O)CCCNc1cccc2c1C(=O)N(C1CCC(=O)NC1=O)C2=O)c1ccc(NC(=O)CCCCCCC(=O)NO)cc1 (centres unmarked) [XY-07-35]	efficiently degraded
CN1C(=O)CCC(N2C(=O)c3cccc(NCCCC(=O)N(C)c4ccc(NC(=O)CCCCCCC(=O)NO)cc4)c3C2=O)C1=O (centres unmarked) [XY-07-191]	only minimal or no effect on HDAC6 levels
